The values that follow come from patent publication US20160050895A1, “TRANSGENIC NON-HUMAN ORGANISMS WITH NON-FUNCTIONAL TSPO GENES” (AUSTRALIAN NUCLEAR SCIENCE AND TECHNOLOGY ORGANIZATION, priority 2013, published 2016).

Entries after “also recorded” stand apart in the source; their conditions may differ.

Assay [1] has as its system TSPO. Kind of assay: Film autoradiography of brain sections after facial nerve axotomy. The class given is binding, mouse. The settings on record: TSPO-/- mice. The text has this: Procedures for facial nerve axotomy were approved by the animal ethics committee at the University of Sydney. Animals were anaesthetised using Isoflurane anaesthesia. Animals were monitored for a combination of respiration, heart rate, oxygen saturation and temperature during procedures using a variety of monitoring equipment to ensure anaesthetic depth. The surgical process commenced when foot-pad or plantar reflex could no longer be elicited. The fur on the ipsilateral (right) side of the neck was shaved from the ear downwards, and the skin cleaned using 70% ethanol. A small incision (0.5-0.7 cm in length) overlying the musculature covering the stylomastoid foramen was made. The facial nerve was identified, isolated and then transected completely. The skin of incision was closed with heal-glue. […] The animals were euthanized with CO2 3 days after the axotomy and brain tissue, including facial nerve nuclei in the brain stem and cerebellum, was immediately dissected, snap-frozen in liquid nitrogen, and then stored in −80° C. freezer until the cryostat section.
A small incision (0.5-0.7 cm) in the skin 0.5 cm dorsal and lateral to the ear was made and the facial nerve transected under an operating microscope. The incision was closed with 3M™ Vetbond™ Tissue Adhesive (St. Paul, Minn., USA). […] Mice were monitored carefully and euthanized with CO2 three days after the operation. Brains were dissected, placed in OCT, transferred to liquid nitrogen, and stored at −80° C. until cryo-sectioning.
Tissue sections from TSPO^+/+, TSPO^+/− and TSPO^−/− mice were incubated at room temperature for 20 min in 170 mM Tris-HCl pH 7.4 containing 1 nM [^3H]PK11195 (specific activity 84 Ci/mmol; Perkin Elmer, Waltham, Mass., USA), washed twice for 5 min in 170 mM Tris-HCl, rinsed with 3 dips in ice-cold MilliQ H2O, and dried. […] Displacement binding was carried out in the presence of PK11195 (10 μM), CLINDE (10 μM) and PBR-11 (10 μM).

In assay [2] the test system is TSPO. Kind of assay: Radioligand membrane saturation binding with 3H-PK11195. The arrangement: species or system mouse. The settings on record: testicular and kidney tissue; TSPO-/- mice compared to TSPO+/+ mice. The protocol:
Tissue samples were homogenised with T25 digital Ultra-Turrax homogenizer (Ika, Wilmington, N.C., USA) at speed setting 5 or 20000 rpm in approximately 45 mL of ice-cold TRIS buffer (pH 7.4), collected by centrifugation at 48000 g and the supernatant was then discarded. The procedure was then immediately repeated, this acts as an extra wash step to remove any soluble interfering substances to radioligand binding (Byland et al. 1993). Following the second centrifugation and removal ofsupernatant the samples were resuspended in approximately 50 volumes of ice-cold TRIS buffer (pH 7.4). Samples were aliquoted stored in −80° C. until required.
For TSPO knock-out mice studies, radioligand binding was performed using 3H-PK11195 racemate across a range of concentrations (FIG. 4). PK11195 is a TSPO specific probe. Total and non-specific binding was determined through 8 concentrations of 3H-PK11195 ranging from 0.56 nM to 20 nM. Non-specific binding was determined by the addition of 5 μM PK11195 to all concentrations of 3H-PK11195. […]
Organs were homogenised, washed twice in ice-cold 50 mM Tris-HCl (pH 7.4) by centrifugation at 48000×g, resuspended in 50 volumes of ice-cold 50 mM Tris-HCl, and protein concentration was determined using a BCA protein assay kit (Thermo Fisher Scientific). […] Non-specific binding was determined with 5 μM PK11195. […]

Take `CC[C@@H](C)N(C)C(=O)c1cc2ccccc2c(-c2ccccc2Cl)n1` [[^3H]PK11195]: in the assay on TSPO [1] (after facial nerve axotomy, activated microglia present), the “TSPO ligand binding in the injured facial nucleus” value is “no binding; also recorded: not associated with an increase in the binding”. The “selectivity in pathologically changed tissue” value with TSPO [1] (injured facial nucleus) was “high selectivity; also recorded: holds true”. Also, the “Specific binding using [3H]PK11195” value with TSPO [2] is “close to zero signal”.
